Experimental data published in US20040097596A1 (priority 2000, published 2004).
Like-named read-outs stand apart in the source and are kept apart here.

Tested on: Phytophthora infestans
Format: in vivo
Conditions: for E, Expected % disease control / O, Observed % disease control / O-E: A76 potato; for performance in combination with A76 (indicative of synergy): in combination with A76 potato, observed vs expected disease control
[1] = 3 ppm, Jan. 25, 2001, FB 2001/3001
[2] = 3 ppm, Jan. 26, 2001, FB 2001/3001
[3] = 3 ppm, Jan. 27, 2001, FB 2001/3001
[4] = 3 ppm, Jan. 28, 2001, FB 2001/3001
[5] = 3 ppm, Jan. 29, 2001, FB 2001/3001
[6] = 3 ppm, Oct. 13, 2000, FB 2000/3024
[7] = 3 ppm, Oct. 16, 2000, FB 2000/3024
[8] = 3 ppm, Oct. 18, 2000, FB 2000/3024
[9] = 3 ppm, Oct. 20, 2000, FB 2000/3024
[10] = 10 ppm, Jan. 25, 2001, FB 2001/3001
[11] = 10 ppm, Jan. 26, 2001, FB 2001/3001
[12] = 10 ppm, Jan. 27, 2001, FB 2001/3001
[13] = 10 ppm, Jan. 28, 2001, FB 2001/3001
[14] = 10 ppm, Jan. 29, 2001, FB 2001/3001
[15] = 10 ppm, Oct. 13, 2000, FB 2000/3024
[16] = 10 ppm, Oct. 16, 2000, FB 2000/3024
[17] = 10 ppm, Oct. 18, 2000, FB 2000/3024
[18] = 10 ppm, Oct. 20, 2000, FB 2000/3024
[19] = 30 ppm, Oct. 13, 2000, FB 2000/3024
[20] = 30 ppm, Oct. 16, 2000, FB 2000/3024
[21] = 30 ppm, Oct. 18, 2000, FB 2000/3024
[22] = 30 ppm, Oct. 20, 2000, FB 2000/3024

## N#Cc1c(Cl)c(Cl)c(Cl)c(C#N)c1Cl [Chlorothalonil, chlorothalonil]
[1]
  E, Expected % disease control: 98.3%
  O, Observed % disease control: 91.7%
  O-E: −1.6
[2]
  E, Expected % disease control: 96.2%
  O, Observed % disease control: 94.9%
  O-E: −1.3
[3]
  E, Expected % disease control: 94.5%
  O, Observed % disease control: 92.7%
  O-E: −1.7
[4]
  E, Expected % disease control: 83.2%
  O, Observed % disease control: 86.9%
  O-E: 3.6
[5]
  E, Expected % disease control: 67.2%
  O, Observed % disease control: 77.9%
  O-E: 10.7
[6]
  E, Expected % disease control: 73.73%
  O, Observed % disease control: 83.1%
  O-E: 9.37
[7]
  E, Expected % disease control: 78.12%
  O, Observed % disease control: 86.09%
  O-E: 7.97
[8]
  E, Expected % disease control: 56.09%
  O, Observed % disease control: 76.41%
  O-E: 20.32
[9]
  E, Expected % disease control: 39.95%
  O, Observed % disease control: 75.7%
  O-E: 35.75
[10]
  E, Expected % disease control: 97.0%
  O, Observed % disease control: 97.2%
  O-E: 0.2
[11]
  E, Expected % disease control: 98.2%
  O, Observed % disease control: 97.4%
  O-E: −0.8
[12]
  E, Expected % disease control: 97.8%
  O, Observed % disease control: 97.9%
  O-E: 0.1
[13]
  E, Expected % disease control: 93.8%
  O, Observed % disease control: 99.0%
  O-E: 5.2
[14]
  E, Expected % disease control: 90.1%
  O, Observed % disease control: 97.0%
  O-E: 6.9
[15]
  E, Expected % disease control: 92.49%
  O, Observed % disease control: 88.73%
  O-E: −3.76
[16]
  E, Expected % disease control: 94.65%
  O, Observed % disease control: 95.36%
  O-E: 0.71
[17]
  E, Expected % disease control: 91.33%
  O, Observed % disease control: 87.77%
  O-E: −3.56
[18]
  E, Expected % disease control: 84.98%
  O, Observed % disease control: 79.74%
  O-E: −5.24
  performance in combination with A76 (indicative of synergy): better than expected

## COCC(=O)N(c1c(C)cccc1C)C(C)C(=O)OC (centres unmarked) [Metalaxyl, metalaxyl]
[1]
  E, Expected % disease control: 88.8%
  O, Observed % disease control: 91.7%
  O-E: 2.8
[2]
  E, Expected % disease control: 92.6%
  O, Observed % disease control: 94.9%
  O-E: 2.3
[3]
  E, Expected % disease control: 87.2%
  O, Observed % disease control: 93.8%
  O-E: 6.5
[4]
  E, Expected % disease control: 57.9%
  O, Observed % disease control: 91.9%
  O-E: 34.1
[5]
  E, Expected % disease control: 38.1%
  O, Observed % disease control: 89.9%
  O-E: 51.8
[6]
  E, Expected % disease control: 79.35%
  O, Observed % disease control: 94.37%
  O-E: 15.02
[7]
  E, Expected % disease control: 71.31%
  O, Observed % disease control: 97.68%
  O-E: 26.37
[8]
  E, Expected % disease control: 58.26%
  O, Observed % disease control: 97.95%
  O-E: 39.69
[9]
  E, Expected % disease control: 42.01%
  O, Observed % disease control: 95.95%
  O-E: 53.94
[10]
  E, Expected % disease control: 98.3%
  O, Observed % disease control: 97.2%
  O-E: 3.9
[11]
  E, Expected % disease control: 96.2%
  O, Observed % disease control: 98.7%
  O-E: 2.5
[12]
  E, Expected % disease control: 94.2%
  O, Observed % disease control: 99.0%
  O-E: 4.8
[13]
  E, Expected % disease control: 80.4%
  O, Observed % disease control: 98.0%
  O-E: 17.6
[14]
  E, Expected % disease control: 55.4%
  O, Observed % disease control: 97.0%
  O-E: 41.6
[15]
  E, Expected % disease control: 88.74%
  O, Observed % disease control: 94.37%
  O-E: 5.63
[16]
  E, Expected % disease control: 87.84%
  O, Observed % disease control: 96.6%
  O-E: 8.76
[17]
  E, Expected % disease control: 75.07%
  O, Observed % disease control: 97.95%
  O-E: 22.88
[18]
  E, Expected % disease control: 48.83%
  O, Observed % disease control: 96.96%
  O-E: 48.13
[19]
  E, Expected % disease control: 96.25%
  O, Observed % disease control: 100%
  O-E: 3.75
[20]
  E, Expected % disease control: 97.08%
  O, Observed % disease control: 100%
  O-E: 2.92
[21]
  E, Expected % disease control: 94.58%
  O, Observed % disease control: 97.95%
  O-E: 3.37
[22]
  E, Expected % disease control: 89.77%
  O, Observed % disease control: 97.97%
  O-E: 8.2
  performance in combination with A76 (indicative of synergy): better than expected
